Assay results reported in publication PMC9329436, “Optimization of the 4-anilinoquin(az)oline scaffold as epidermal growth factor receptor (EGFR) inhibitors for chordoma utilizing a toxicology profiling assay platform” (Scientific Reports, 2022).

System: HL60 cells
Experiment: AsedaSciences SYSTEMETRIC Cell Health Screen (flow cytometry toxicity profiling)
Conditions: HL60, 4 h, 5 nM–100 µM; for CC: Cell Cycle score / CM: Cell morphology score / CMI: Cell membrane integrity score / MMP: Mitochondrial membrane depolarization score / ROS: Reactive superoxide species score / GSH: Glutathione score / NMI1: Nuclear membrane integrity 1 score / NMI2: Nuclear membrane integrity 2 score: probability 0–1, n = 2; for CHI: Cell Health Index: probability (0–1) of high-risk class, n = 2
Excerpt: To prioritize further optimization, in addition to cellular potency, we utilized the AsedaSciences® […]® Cell Health Screen. This live cell flow cytometry (FC) screen was developed to assess human safety risk for candidate pharmaceutical small molecules at the early hit-to-lead stage of development. The screen works by estimating the risk using a supervised machine learning (ML) classifier to assess a multiparametric cellular stress phenotype, produced by the test compound, relative to a training set of known compounds (Table S1). This screen has been designed for early pipeline risk estimation regardless of pharmaceutical class/disease type, so it uses HL60 as the reporter cell line.
The ML classifier was trained with 300 historically known compounds (on market or withdrawn drugs, research compounds, etc.), which were divided into two outcome classes based upon literature, clinical trials, and market histories where applicable. This external curation informed an outcome of “high-risk” or “low-risk”. All 300 compounds were also processed through the automated FC screen, populating each of the two classes with frequency distributions of empirical cell-based phenotypes.
To estimate human safety risk for an unknown compound, the ML classifier assesses the similarity of the test compound’s cell-based phenotype to the distributions of phenotypes in the two outcome classes. […] Phenotypes are derived from twelve FC detection parameters, including light scatter and a series of fluorescent physiological reporter dyes, that track cell stress-related endpoints.
To produce the Cell Health Index, the ML classifier uses all twelve FC parameters simultaneously in a multidimensional logistic regression model, so the CHI contains the most predictive power. In addition to the Cell Health Index, Table 4 also reports probability scores for eight cell stress-related endpoints. These scores are produced individually by passing information to the ML classifier relating to parameters that inform that endpoint. For example, to produce the cell morphology (CM) score, the ML classifier only uses the FC detection parameters for forward scatter (informing change in cell diameter) and side scatter (informing change in optical granularity of the cell) to inform the model. Together, these eight endpoints provide a “biological fingerprint”, allowing assessment of the degree to which SAR series members behave differently across endpoints.
In a 384-well platform, HL60 cells were exposed to a 10-step, 3 × dilution series of each test compound (5 nM–100 µM) for 4 h at 37 °C with 5% CO2. Each dilution series was screened in duplicate, occupying a total of 20 wells, allowing 16 test compounds to be assayed per plate. Each row contained one positive and one negative control well, for a total of 16 replicate positive/negative control pairs on each assay plate. Compound formatting, cell deposition, and dye application were performed robotically so that final assay conditions comprised 100,000 cells in a 40 µL volume. After the 4 h compound exposure, cells were immediately stained with a panel of fluorescent dyes that report physiological signatures of both mitochondrial dysfunction and gross cell stress. Fluorescence and forward/side-scatter data were collected using automated FC with no gating. FC data are processed by an automated algorithm for producing quality control measures and ML classification of compound phenotypes. • 2. HL60 cell culture production
HL60 cells were produced as suspension cultures in glass 850 cm^2 roller bottles with vented caps, at 1 RPM, 5% CO2, and 37 °C. […] Culture density was maintained at or below 1 × 10^6 cells/mL.

CCCCc1oc2ccccc2c1C(=O)c1cc(I)c(OCCN(CC)CC)c(I)c1 [Amiodarone, reference compound]
CC: Cell Cycle score: 0.96
CM: Cell morphology score: 0.97
CMI: Cell membrane integrity score: 0.80
MMP: Mitochondrial membrane depolarization score: 0.87
ROS: Reactive superoxide species score: 0.19

COc1ccc2cc3[n+](cc2c1OC)CCc1cc2c(cc1-3)OCO2 [Berberine, reference compound]
CC: Cell Cycle score: 0.99
CM: Cell morphology score: 0.99
CMI: Cell membrane integrity score: 0.050
GSH: Glutathione score: 0.93
MMP: Mitochondrial membrane depolarization score: 1.00
NMI1: Nuclear membrane integrity 1 score: 0.99
NMI2: Nuclear membrane integrity 2 score: 0.97
ROS: Reactive superoxide species score: 1.00
CHI: Cell Health Index: 0.82

O=C1CC2(CCCC2)CC(=O)N1CCCCN1CCN(c2ncccn2)CC1 [Buspirone, reference compound]
CC: Cell Cycle score: 0.11
CM: Cell morphology score: 0.060
CMI: Cell membrane integrity score: 0.040
GSH: Glutathione score: 0.080
MMP: Mitochondrial membrane depolarization score: 0.020
NMI1: Nuclear membrane integrity 1 score: 0.070
NMI2: Nuclear membrane integrity 2 score: 0.040
ROS: Reactive superoxide species score: 0.05
CHI: Cell Health Index: 0.22

Cc1ccc(-c2cc(C(F)(F)F)nn2-c2ccc(S(N)(=O)=O)cc2)cc1 [Celecoxib, reference compound]
CC: Cell Cycle score: 0.61
CM: Cell morphology score: 0.56
CMI: Cell membrane integrity score: 0.94
GSH: Glutathione score: 0.36
MMP: Mitochondrial membrane depolarization score: 0.51
NMI1: Nuclear membrane integrity 1 score: 0.53
NMI2: Nuclear membrane integrity 2 score: 0.51
ROS: Reactive superoxide species score: 0.96
CHI: Cell Health Index: 0.54

Clc1cccc(Cl)c1N=C1NCCN1 [Clonidine, reference compound]
CC: Cell Cycle score: 0.060
CM: Cell morphology score: 0.00
CMI: Cell membrane integrity score: 0.030
GSH: Glutathione score: 0.10
MMP: Mitochondrial membrane depolarization score: 0.010
NMI1: Nuclear membrane integrity 1 score: 0.15
NMI2: Nuclear membrane integrity 2 score: 0.040
ROS: Reactive superoxide species score: 0.040
CHI: Cell Health Index: 0.14

CN(C)CCOC(c1ccccc1)c1ccccc1 [Diphenhydramine, reference compound]
CC: Cell Cycle score: 0.030
CM: Cell morphology score: 0.010
CMI: Cell membrane integrity score: 0.030
MMP: Mitochondrial membrane depolarization score: 0.030
ROS: Reactive superoxide species score: 0.040

CC(C)(C(=O)O)c1ccc(C(O)CCCN2CCC(C(O)(c3ccccc3)c3ccccc3)CC2)cc1 (stereo not drawn) [Fexofenadine, reference compound]
CC: Cell Cycle score: 0.020
CM: Cell morphology score: 0.00
CMI: Cell membrane integrity score: 0.040
MMP: Mitochondrial membrane depolarization score: 0.020
ROS: Reactive superoxide species score: 0.16

COc1cc2ncnc(Nc3ccc(F)c(Cl)c3)c2cc1OCCCN1CCOCC1 [Gefitinib, reference compound]
CC: Cell Cycle score: 0.93
CM: Cell morphology score: 1.00
CMI: Cell membrane integrity score: 0.99
GSH: Glutathione score: 0.97
MMP: Mitochondrial membrane depolarization score: 0.99
NMI1: Nuclear membrane integrity 1 score: 0.61
NMI2: Nuclear membrane integrity 2 score: 0.94
ROS: Reactive superoxide species score: 0.93
CHI: Cell Health Index: 0.80

CC(C(=O)O)c1cccc(C(=O)c2ccccc2)c1 (stereo not drawn) [Ketoprofen, reference compound]
CC: Cell Cycle score: 0.050
CM: Cell morphology score: 0.00
CMI: Cell membrane integrity score: 0.030
GSH: Glutathione score: 0.010
MMP: Mitochondrial membrane depolarization score: 0.010
ROS: Reactive superoxide species score: 0.18
